Several values for one entry are separate records, joined by “and”; a condition that tells them apart may be missing. Identical values can stand only once.

A word on the melting point: it is the temperature, or range, at which the solid turns liquid. The compound `Cc1nc(-c2ccc(-c3nc(C)c(-c4ccccc4)o3)cc2)oc1-c1ccccc1` [1,4-bis(4-methyl-5-phenyloxazol-2-yl)benzene] registered a melting point of 234 °C.
Then `CC(=O)Nc1ccc(C2=NN(c3ccccc3)C(=O)C2)cc1`, with 210 °C; and `C=CCOc1ccc(CC(=O)O)cc1Cl` [alclofenac], with 92 °C; and `CC1(C)[C@H]2CC[C@]1(CS(=O)(=O)Cl)C(=O)C2` [(1R)-camphor-10-sulfonyl chloride], with 66 °C.
The compound `CN1CC[C@@H](c2ccc(F)cc2)[C@H](CO)C1` [(3S,4R)-4-(4-fluorophenyl)-1-methyl-3-piperidinemethanol] had a melting point of 96 °C.
In turn, `Cc1cc(Cl)c(Cl)cc1Cl` [2,4,5-Trichlorotoluene] showed a melting point of 82.4 °C.
Turning to `O=c1[nH]cnc2c1ncn2[C@H]1CC[C@@H](CO)O1` [didanosine], the melting point amounted to 162 °C.
In the case of `Cc1ccnc2c1NC(=O)c1cccnc1N2C1CC1` [nevirapine], the melting point came out at 248 °C.
On to `O=C(C1CCCCC1)N1CC(=O)N2CCc3ccccc3C2C1` (configuration not stated) [praziquantel], for which the melting point amounted to 136 °C.
Then `Cc1c(Cl)c(Cl)c(Cl)c(Cl)c1Cl` [Pentachlorotoluene], with 225 °C; and `CC=C1CCC2C3CCC4CC(OC(C)=O)CCC4(C)C3CCC12C` (configuration not stated) [pregn-17-en-3-yl acetate], with 119 °C; and `NS(=O)(=O)c1cc2c(cc1C(F)(F)F)NCNS2(=O)=O` [hydroflumethiazide], with 272 °C.
Then `Brc1cccnc1` [3-bromopyridine], with -27 °C.
`CC(C)CC1=C/C(=C/c2ccc(-c3ccc(Br)cc3)o2)C(=O)O1` registered a melting point of 108 °C.
Then `OCc1cccc(Oc2ccccc2)c1` [(3-Phenoxyphenyl)methanol], with 10 °C.
Then `CC(=O)C=Cc1oc2ccc(Cl)cc2c1-c1ccc(C)o1`, with 119 °C; and `N#Cc1cccc(C=O)c1` [3-cyanobenzaldehyde] [listing 1 of 2 here], with 77 °C.
Then `CCCCCCCC(=O)Oc1ccc(/N=N/c2ccc(CCCC)cc2)cc1` [4-[(E)-(4-butylphenyl)diazenyl]phenyl octanoate], with 64 °C; and `C=C(C#N)C(=O)OCC` [Ethyl 2-cyanoacrylate], with -22 °C; and `CI` [Iodomethane], with -64 °C.
In turn, `OB(O)c1cccc(CBr)c1` [3-(bromomethyl)benzeneboronic acid] gave a melting point of 215 °C.
Then `O=Cc1ccc(C(F)(F)F)cc1` [4-(trifluoromethyl)benzaldehyde], with 1.5 °C; and `NC(=O)C(Cl)(Cl)Cl` [2,2,2-Trichloroacetamide], with 142 °C; and `C=CCCCCCCCCCCCCC` [1-pentadecene], with -4 °C.
Then `N#Cc1cccc(C=O)c1` [3-cyanobenzaldehyde] [listing 2 of 2 here], with 77 °C; and `OCC#CCO` [2-butyne-1,4-diol], with 57 °C.
Then `CCCCCOCCCCC` [pentyl_ether], with -69 °C.
`COC(=O)c1cccc(C(=O)OC)n1` [dimethyl pyridine-2,6-dicarboxylate] yielded a melting point of 121 °C.
Regarding `BrCC(Br)(Br)CBr` [1,2,2,3-tetrabromopropane], the melting point stood at 11 °C.
In the case of `Nc1cccc2c(=O)[nH][nH]c(=O)c12` [3-aminophthalhydrazide], the melting point stood at 328 °C.
`CN1C(=O)C(=NNc2c(Br)cc(Br)cc2Br)C(=O)N(C)C1=O`: the melting point amounted to 166 °C.
With `O=C(O)c1ccc2ccccc2n1` [quinaldic acid], the melting point turned out to be 158 °C.
Then `Nc1ccc(Br)cc1` [p-bromoaniline], with 63 °C.
Then `CC1=NC2=CCC=CC2=C1C#N` [2-methyl-1H-indole-3-carbonitrile], with 213 °C; and `COc1ccc([C@@H]2CC(=O)c3c(O)cc(O)cc3O2)cc1O` [3',5,7-trihydroxy-4'-methoxyflavanone], with 230 °C.
Then `CC(=O)OC[C@H]1O[C@H](OC(C)=O)[C@H](OC(C)=O)[C@@H](OC(C)=O)[C@@H]1OC(C)=O` [alpha-D-glucose pentaacetate], with 111 °C; and `COC(=O)c1sccc1N` [methyl 3-aminothiophene-2-carboxylate], with 65 °C; and `Cc1ccc2oc(-c3cccc(O)c3)cc(=O)c2c1` [3'-hydroxy-6-methylflavone], with 205 °C.
Take `CC(C(=O)O)c1cccc(C(=O)c2ccccc2)c1` (configuration not stated) [Ketoprofen]: the melting point amounted to 94 °C.
Compound `CO[Si](OC)(OC)OC` [tetramethoxysilane] gave a melting point of 5 °C.
`CN(C)CCO` [2-(dimethylamino)ethanol] displayed a melting point of -60 °C.
Then `NC(=O)c1ccc(Cl)cc1` [4-chlorobenzamide], with 178 °C; and `NCCNCCNCCNCCN`, with -40 °C; and `Oc1c(Br)cc(Br)cc1Br` [2,4,6-tribromophenol], with 89 °C.
`CC(=O)OCc1ccccc1` [benzyl acetate]: the melting point was -51 °C.
Then `CC(=O)OCc1ccccc1` [benzyl_acetate], with -51 °C; and `CCSc1nnc(N)s1` [2-amino-5-ethylthio-1,3,4-thiadiazole], with 132 °C; and `C/C=C/C1Nn2c(nnc2-c2ccccc2OC)S1` (configuration not stated), with 125 °C.
Then `Cc1ccc(N)c(Br)c1` [2-bromo-4-methylaniline], with 14 °C.
Take `CCCCCCC(=O)O` [Heptanoic acid]: the melting point was -9 °C.
Then `C=C(C)C1CC=C(C)/C(=N/O)C1` (configuration not stated) [(1E)-5-Isopropenyl-2-methyl-2-cyclohexen-1-one oxime], with 72 °C; and `C=C1CC2C3C=C(C)C4=CC(=O)CCC4(C)C3CCC2(C)C1(OC(C)=O)C(C)=O` (configuration not stated) [melengestrolacetate], with 224 °C.
`N#CCc1cccc(O)c1` [m-hydroxy_phenylacetonitrile]: the melting point worked out at 53 °C.
`CCCCCCCCCCCCCO` [1-tridecanol] came in with a melting point of 34 °C.
Then `Oc1cc(Cl)ccc1Oc1ccc(Cl)cc1Cl` [5-chloro-2-(2,4-dichlorophenoxy)phenol], with 57 °C.
Then `CCOC(=O)c1ccc(O)cc1` [ethylparaben], with 116 °C; and `CC(=O)Cl` [acetyl chloride], with -112 °C; and `Cc1cc(C)c(CSCc2c(C)cc(C)cc2C)c(C)c1` [1,1'-(sulfanediyldimethanediyl)bis(2,4,6-trimethylbenzene)], with 146 °C.
For `CC(C)c1ncc([N+](=O)[O-])n1C` [ipronidazole], the melting point turned out to be 61 °C.
`O=C(O)CCC(=O)O` [Succinic acid] had a melting point of 186 °C.
In turn, `CC1(CO)NC(C(=O)O)CC2c3ccccc3NC21` (configuration not stated) gave a melting point of 260 °C.
Then `Cc1c2ccccc2cc2ccccc12` [9-Methylanthracene], with 78 °C; and `CCCCCCCC` [octane], with -57 °C and -56.8 °C.
Consider `Brc1cc(Br)cc(Br)c1` [1,3,5-Tribromobenzene], for which the melting point stood at 122 °C.
Then `N#Cc1cccc(N)c1` [3-aminobenzonitrile], with 52 °C; and `O=P1(N(CCCl)CCCl)NCCCO1` (configuration not stated) [Cyclophosphamide], with 43 °C.
Then `Nc1ccccc1NNc1ccccc1` [2-(2-phenylhydrazino)aniline], with 107 °C.
Then `COc1ccc(/C(C)=C/C(C)=O)cc1` [(3E)-4-(4-methoxyphenyl)pent-3-en-2-one], with 53 °C.
As to `O=C(/C=C/c1ccc(-c2ccc(Br)cc2)o1)c1ccco1`, the melting point is 165 °C.
For the compound `Oc1ccccc1I` [2-iodophenol], the melting point was determined as 40 °C.
With `CN(C)C=O` [N,N-dimethylformamide], the melting point is -61 °C.
For the compound `Oc1cc(Cl)ccc1Cl` [2,5-dichlorophenol], the melting point is 57 °C.
Then `COc1ccc2c(c1)c(CC(=O)O)c(C)n2C(=O)c1ccc(Cl)cc1` [indomethacin], with 160 °C; and `CC(C)C(C)C` [2,3-Dimethylbutane], with -128 °C.
For `Nc1ccc([N+](=O)[O-])cc1` [4-nitroaniline], the melting point is 148 °C.
Compound `Cn1c(=O)c2c(ncn2C)n(C)c1=O` [Caffeine] yielded a melting point of 236 °C.
`Oc1ccc(/C=C/c2cc(O)cc(O)c2)cc1` [resveratrol] came in with a melting point of 254 °C.
Then `ClC1=C(Cl)C2(Cl)C3C(Cl)C=CC3C1(Cl)C2(Cl)Cl` (configuration not stated) [Heptachlor], with 95 °C; and `O=C5\C=C4/C(C3CCC2(C(CCC2OC(=O)c1ccccc1)C3CC4)C)(C)CC5` (configuration not stated) [Testosterone benzoate], with 195 °C; and `CC(C)(C)C(=O)Nc1ccncc1` [4-(2,2,2-trimethylacetamido)pyridine], with 136 °C.
In turn, `C=CCc1ccccc1O` [2-allylphenol] yielded a melting point of -6 °C.
`O=C(O)C(=Cc1ccccc1)Cc1ccccc1` [2-benzyl-3-phenylacrylic acid] registered a melting point of 158 °C.
Then `N#CCCCCCCC#N` [1,6-dicyanohexane], with -3 °C.
Then `O=C(O)C12CC3CC(CC(C3)C1)C2` [adamantane-1-carboxylic acid], with 175 °C; and `OCCN1CCCCC1C(c1ccccc1)c1ccccc1` (configuration not stated) [diphemethoxidine], with 106 °C.
Then `N[C@@H](CO)Cc1ccccc1` [D-phenylalaninol], with 92 °C.
For the compound `O=C(O)c1cc(O)ccc1O` [2,5-dihydroxybenzoic acid], the melting point was 200 °C and 205 °C.
`O=C(OCc1ccccc1)c1ccccc1` [Benzyl Benzoate] yielded a melting point of 21 °C.
For the compound `CC(C)Cn1cnc2c(N)nc3ccccc3c21` [Imiquimod], the melting point stood at 293 °C.
Turning to `FC(F)(F)c1ccccc1` [(Trifluoromethyl)benzene], the melting point was -27 °C.
`OCCOCCO` [diethylene glycol]: the melting point is -10 °C.
Then `COCc1ccccc1` [benzyl_methyl_ether], with -52 °C.

The record behind these values is the Bradley open melting point set (2014).
